Data published in US7297708B2, “Heteroaromatic substituted cyclopropane as corticotropin releasing hormone ligands” (Bristol-Myers Squibb Company, priority 2001, dated 2007).

- melting point: 46 to 48 °C
SMILES: COc1ccccc1C1(c2ncc(C)c(-c3ccc(Cl)cc3Cl)n2)CC1 [Compound 11, 4-(2,4-Dichloro-phenyl)-2-[1-(2-methoxy-phenyl)-cyclopropyl]-5-methyl-pyrimidine]
